In patent EP4768499A1, “MACROCYCLIC PEPTIDE COMPOUND HAVING CELL MEMBRANE PERMEABILITY AND METABOLIC STABILITY, AND LIBRARY CONTAINING SAME” (Chugai Seiyaku Kabushiki Kaisha, priority 2023, dated 2025):
Like-named read-outs stand apart in the source and are kept apart here. Starred links: 1 amine or outer side, 2 acyl side, 3 side chain; linkers in the order of their positions; H or OH if unused. Non-standard residues stand in square brackets, D forms with d. Residues, ends and D or L forms follow the SMILES beside them. *: point of attachment. NMedβ3hAla = C[C@H](CC(=O)[*:2])N(C)[*:1]; NMeF = CN[C@@H](Cc1ccccc1)C(=O)O; NMeI = CC[C@H](C)[C@H](NC)C(=O)O; NMeT = CN[C@H](C(=O)O)[C@@H](C)O; hPhe = N[C@@H](CCc1ccccc1)C(=O)O; NMeβAla = CN(CCC(=O)[*:2])[*:1]; NMeL = CN[C@@H](CC(C)C)C(=O)O; NMeV = CN[C@H](C(=O)O)C(C)C; d(β3hA) = C[C@@H](N)CC(=O)O; NMeAbu = CC[C@H](NC)C(=O)O; Abu = CC[C@H](N)C(=O)O; Sar = CNCC(=O)O; tBu = CC(C)(C)*

Columns and labels:
[1] = Mouse PK test: plasma concentration after intravenous or oral administration; assay type: in vivo, mice (C57BL/6J); details: C57BL/6J
Description: We evaluated the plasma concentration changes after intravenous or oral administration of four types of peptides that satisfy these conditions to mice.
To male mice (C57BL/6J, 10 weeks old, purchased from Charles River Laboratories Japan, Inc.: 3 mice per group), the compound was administered intravenously at a dose of 1 mg/kg or orally at a dose of 50 mg/kg, and blood was collected from the jugular vein over time up to 24 hours after administration. The collected blood was dispensed into tubes that were pre-treated with heparin as an anticoagulant. Plasma was separated from the blood by centrifugation, and after deproteinization with acetonitrile, the plasma concentration of the compound was measured with an LC/MS/MS device (XEVO TQ-XS, manufactured by Waters Corporation).

[2] = Metabolic stability test: liver microsomal stability assay; assay type: in vitro ADME, mouse; details: for microsomal CLint at 1 µM: male, pH 7.4, presence of NADPH, read-out: Mouse Hepatic Microsome CLh,int NADPH(+)
[3] = Membrane permeability test using Caco-2 cells with preincubation; assay type: in vitro ADME; details: Caco-2
[4] = test system: Caco-2 cells; test: as above; assay type: in vitro ADME
[5] = mouse liver microsomes 0.5 mg protein/mL, compound 1 µM
[6] = mouse liver microsomes 0.5 mg protein/mL, compound 1 µM, absence of NADPH
[7] = preincubation 20 to 24 hours, Apical FaSSIF/HBSS pH 6.0, Basal HBSS 4% BSA pH 7.4, 180 minutes, read-out: Caco2 Papp
[8] = Caco-2 cells, preincubation 20 to 24 hours, apical FaSSIF/HBSS 1% DMSO pH 6.0, basal HBSS 4% BSA pH 7.4, basal sample at 180 minutes

## CC[C@@H]1NC(=O)[C@H](CC(C)C)N(C)C(=O)[C@H](COC(C)(C)C)NC(=O)[C@H]([C@@H](C)CC)N(C)C(=O)[C@H](CCc2ccccc2)NC(=O)[C@H](Cc2ccccc2)N(C)C(=O)[C@H](C(C)C)NC(=O)[C@H](CC(C)C)N(C)C(=O)[C@H](CC(C)C)NC(=O)CCN(C)C(=O)C[C@@H](C)N(C)C(=O)CN(C)C(=O)[C@H](CC(C)C)N(C)C(=O)[C@@H]2CCCN2C1=O [pd065] (cyclo([Abu]P[NMeL][Sar][NMedβ3hAla][NMeβAla]L[NMeL]V[NMeF][hPhe][NMeI]S(tBu)[NMeL]))
[1]; in vivo, male mice, intravenous administration, 1 mg/kg, read-out: AUCinf
  AUC(0-inf): 8700 ng·h/mL
[1]; in vivo, male mice, intravenous administration, 1 mg/kg, read-out: CL
  clearance: 1.9 mL/min/kg
[1]; in vivo, male mice, intravenous administration, 1 mg/kg, read-out: Vss
  Vd: 0.57 L/kg
[1]; in vivo, male mice, intravenous administration, 1 mg/kg, read-out: t1/2 (converted)
  half-life: 5.4 h
[1]; in vivo, male mice, oral 50 mg/kg vs intravenous 1 mg/kg, bioavailability, read-out: F
  bioavailability: 26%
[1]; in vivo, male mice, oral administration, 50 mg/kg, read-out: AUCinf
  AUC(0-inf): 110000 ng·h/mL
[1]; in vivo, male mice, oral administration, 50 mg/kg, read-out: Cmax
  Cmax: 11000 ng/mL
[1]; in vivo, male mice, oral administration, 50 mg/kg, read-out: Tmax
  Tmax: 2.7 h
[1]; in vivo, male mice, oral administration, 50 mg/kg, read-out: t1/2 (converted)
  half-life: 5.8 h
[2]; [5]
  microsomal CLint at 1 µM: 41.7 µL/min/mg
[2]; [6]
  Mouse Hepatic Microsome CLh,int NADPH(-): 40.2 µL/min/mg Protein
[3]; [7]
  Papp A→B: 0.54 ×10⁻⁶ cm/s
[4]; [8]
  Caco2 Papp (10^-6 cm/sec): 0.54 10^-6 cm/sec

## CC[C@@H]1NC(=O)[C@H](CC(C)C)N(C)C(=O)[C@H]([C@@H](C)CC)NC(=O)[C@H](CC(C)C)N(C)C(=O)C[C@@H](C)NC(=O)[C@H](C(C)C)N(C)C(=O)[C@H](CC(C)C)NC(=O)[C@H](CC)N(C)C(=O)[C@H](Cc2ccccc2)N(C)C(=O)[C@@H]2CCCN2C(=O)[C@H](CC(C)C)NC(=O)[C@H]([C@@H](C)O)N(C)C(=O)[C@H](CC(C)C)N(C)C1=O [pd135] (cyclo([Abu][NMeL][NMeT]LP[NMeF][NMeAbu]L[NMeV][d(β3hA)][NMeL]I[NMeL]))
[1]; plasma, male mice, intravenous administration, 1 mg/kg, read-out: AUCinf
  AUC(0-inf): 10000 ng·h/mL
[1]; plasma, male mice, intravenous administration, 1 mg/kg, read-out: CL
  clearance: 1.7 mL/min/kg
[1]; plasma, male mice, intravenous administration, 1 mg/kg, read-out: Vss
  Vd: 0.81 L/kg
[1]; plasma, male mice, intravenous administration, 1 mg/kg, read-out: t1/2 (converted)
  half-life: 6.4 h
[1]; plasma, male mice, oral 50 mg/kg vs intravenous 1 mg/kg, bioavailability, read-out: F
  bioavailability: 16%
[1]; plasma, male mice, oral administration, 50 mg/kg, read-out: AUCinf
  AUC(0-inf): 79000 ng·h/mL
[1]; plasma, male mice, oral administration, 50 mg/kg, read-out: Cmax
  Cmax: 7000 ng/mL
[1]; plasma, male mice, oral administration, 50 mg/kg, read-out: Tmax
  Tmax: 1.7 h
[1]; plasma, male mice, oral administration, 50 mg/kg, read-out: t1/2 (converted)
  half-life: 7.6 h
[2]; [5]
  microsomal CLint at 1 µM: 39.5 µL/min/mg
[2]; [6]
  Mouse Hepatic Microsome CLh,int NADPH(-): 28.4 µL/min/mg Protein
[3]; [7]
  Papp A→B: 1.95 ×10⁻⁶ cm/s
[4]; [8]
  Caco2 Papp (10^-6 cm/sec): 1.95 10^-6 cm/sec

## CC[C@H](C)[C@H]1C(=O)N[C@@H](CC(C)C)C(=O)N(C)CC(=O)N(C)[C@@H](CC(C)C)C(=O)N[C@@H](CC(C)C)C(=O)N(C)[C@H](C)CC(=O)N(C)[C@@H](CC(C)C)C(=O)N(C)CCC(=O)N(C)[C@@H](CC(C)C)C(=O)N[C@@H](COC(C)(C)C)C(=O)N(C)[C@@H](Cc2ccccc2)C(=O)N(C)CCC(=O)N(C)[C@@H](Cc2ccccc2)C(=O)N1C [pd144] (cyclo(L[Sar][NMeL]L[NMedβ3hAla][NMeL][NMeβAla][NMeL]S(tBu)[NMeF][NMeβAla][NMeF][NMeI]))
[1]; male, in vivo, iv, 1 mg/kg
  AUC(0-inf): 3500 ng·h/mL
  Vd: 1.6 L/kg
  clearance: 4.9 mL/min/kg
  half-life: 5.3 h
[1]; male, in vivo, po
  bioavailability: 40%
[1]; male, in vivo, po, 50 mg/kg
  AUC(0-inf): 71000 ng·h/mL
  Cmax: 7000 ng/mL
  Tmax: 1.3 h
  half-life: 9.7 h
[2]
  Mouse Hepatic Microsome CLh,int NADPH(-): 34.0 µL/min/mg Protein
[3]
  Papp A→B: 1.28 ×10⁻⁶ cm/s
[4]; Caco-2
  Caco2 Papp (10^-6 cm/sec): 1.28 10^-6 cm/sec
